In patent US4971965A, “Antibiotics TAN-1057” (Takeda Chemical Industries, Ltd., priority 1988, dated 1990):
≈ marks a conversion by molar mass, not a printed value. Read-outs that look alike come from different tables or passages of the source.

Assays:
[1] = test system: Acinetobacter calcoaceticus IFO 12552; experiment: Antibacterial activity (broth dilution MIC, Table 1); assay type: cell-based
Experimental: (§1) The biological activities of TAN-1057 are described as follows.
(§2) (Note 1) Measurement was conducted by employing a medium consisting of
(§3) Bacto Antibiotic Medium 3 (Difco Laboratories, USA)(17.5 g), Bacto yeast
(§4) extract(Difco Laboratories, USA)(5.0 g) and distilled water(pH
(§5) […])(1000 ml), using approximately 10^5 colony forming unit/ml
(§6) of inoculum, by means of the broth dilution method.

[2] = test system: Acinetobacter calcoaceticus IFO 13006; experiment: as above; assay type: cell-based
Experimental: as §1, §2, §3, §4, §5, §6

Aeromonas caviae NCW = experiment: as above; assay type: cell-based
Experimental: as §1, §2, §3, §4, §5, §6

Bacillus cereus FDA 5 = experiment: as above; assay type: cell-based
Experimental: as §1, §2, §3, §4, §5, §6

[3] = test system: Bacillus megaterium IFO 12108; experiment: as above; assay type: cell-based; conditions: Priestia megaterium
Experimental: as §1, §2, §3, §4, §5, §6

[4] = test system: Bacillus subtilis NIHJ PCI 219; experiment: as above; assay type: cell-based
Experimental: as §1, §2, §3, §4, §5, §6

Escherichia coli LD-2 = experiment: as above; assay type: cell-based
Experimental: as §1, §2, §3, §4, §5, §6

[5] = test system: Escherichia coli NIHJ JC 2; experiment: as above; assay type: cell-based
Experimental: as §1, §2, §3, §4, §5, §6

[6] = test system: Klebsiella pnemoniae IFO 3317; experiment: as above; assay type: cell-based
Experimental: as §1, §2, §3, §4, §5, §6

[7] = test system: Micrococcus luteus IFO 12708; experiment: as above; assay type: cell-based
Experimental: as §1, §2, §3, §4, §5, §6

[8] = test system: Proteus vulgaris IFO 3988; experiment: as above; assay type: cell-based
Experimental: as §1, §2, §3, §4, §5, §6

[9] = test system: Pseudomonas aeruginosa IFO 3080; experiment: as above; assay type: cell-based
Experimental: as §1, §2, §3, §4, §5, §6

[10] = test system: Pseudomonas aeruginosa PAO-8; experiment: as above; assay type: cell-based
Experimental: as §1, §2, §3, §4, §5, §6

[11] = test system: Salmonella typhimurium IFO 12529; experiment: as above; assay type: cell-based; conditions: Salmonella enterica
Experimental: as §1, §2, §3, §4, §5, §6

[12] = test system: Staphylococcus aureus FDA 209P; experiment: as above; assay type: cell-based; conditions: FDA209P
Experimental: as §1, §2, §3, §4, §5, §6

[13] = test system: Staphylococcus epidermidis IFO 3762; experiment: as above; assay type: cell-based
Experimental: as §1, §2, §3, §4, §5, §6

[14] = test system: Streptococcus faecalis IFO 3989; experiment: as above; assay type: cell-based; conditions: Enterococcus faecalis
Experimental: as §1, §2, §3, §4, §5, §6

[15] = test system: Eubacterium sp. biurens 515; experiment: MIC against anaerobic bacteria (Table 3); assay type: cell-based; conditions: 10^6 CFU/ml, GAM medium, Gas Pack, 37° C., 18 hours
Experimental: (§7) Inoculum size: 10^6 CFU/ml
(§8) ^Note 1 GAM medium(Nissui),
(§9) Gas Pack (BBL), 37° C., 18 hours

[16] = test system: Fusobacterium necroform VPI 2891; experiment: MIC against anaerobic bacteria (Table 3); assay type: cell-based; conditions: VPI2891, 10^6 CFU/ml, GAM medium, Gas Pack, 37° C., 18 hours
Experimental: as §7, §8, §9

[17] = test system: Lactobacillus acidophilus ATCC 4356; experiment: MIC against anaerobic bacteria (Table 3); assay type: cell-based; conditions: ATCC4356, 10^6 CFU/ml, GAM medium, Gas Pack, 37° C., 18 hours
Experimental: as §7, §8, §9

[18] = test system: Bacteroides fladilis ATCC 2509; experiment: MIC against anaerobic bacteria (Table 3); assay type: cell-based; conditions: ATCC2509, 10^6 CFU/ml, GAM medium, Gas Pack, 37° C., 18 hours
[19] = test system: Mycoplasma garisepticum TB-3A; experiment: MIC against Mycoplasma (Table 3); assay type: cell-based; conditions: TB3A, 120 h, 10^6 CFU/ml, Hayflick medium, 37° C., 5 days
[20] = Acute toxicity in mice (Table 7); conditions: mouse, in vivo
[21] = test system: Treponema hyodicenterie DJ70PI; experiment: MIC against Spirochaeta (Table 3); conditions: 48 h
[22] = pH 5, broth dilution, read-out: Minimum Inhibitory Conc. (MIC)
[23] = pH 7, read-out: Minimum Inhibitory Conc. (MIC)
[24] = pH 9, broth dilution, read-out: Minimum Inhibitory Conc. (MIC)

CN(C(=O)C[C@@H](N)CCCNC(=N)N)[C@H]1CNC(NC(N)=O)=NC1=O [TAN-1057A]
MIC ([1]; IFO12552, pH 5, read-out: Minimum Inhibitory Conc. (MIC)): 12.5 µg/mL (≈ 35.2 µM) | MIC ([1]; IFO12552, pH 7, read-out: Minimum Inhibitory Conc. (MIC)): 6.25 µg/mL (≈ 17.6 µM) | MIC ([1]; IFO12552, pH 9, broth dilution, read-out: Minimum Inhibitory Conc. (MIC)): 1.56 µg/mL (≈ 4.39 µM) | MIC ([2]; IFO13006, pH 5, broth dilution, read-out: Minimum Inhibitory Conc. (MIC)): 1.56 µg/mL (≈ 4.39 µM) | MIC ([2]; IFO13006, pH 7, read-out: Minimum Inhibitory Conc. (MIC)): 6.25 µg/mL (≈ 17.6 µM) | MIC ([2]; IFO13006, pH 9, broth dilution, read-out: Minimum Inhibitory Conc. (MIC)): 1.56 µg/mL (≈ 4.39 µM) | MIC (Aeromonas caviae NCW; [22]): 100 µg/mL (≈ 281 µM) | MIC (Aeromonas caviae NCW; [23]): 6.25 µg/mL (≈ 17.6 µM) | MIC (Aeromonas caviae NCW; [24]): 1.56 µg/mL (≈ 4.39 µM) | MIC (Bacillus cereus FDA 5; FDA5, pH 5, read-out: Minimum Inhibitory Conc. (MIC)): 6.25 µg/mL (≈ 17.6 µM) | MIC (Bacillus cereus FDA 5; FDA5, pH 7, broth dilution, read-out: Minimum Inhibitory Conc. (MIC)): 25 µg/mL (≈ 70.3 µM) | MIC (Bacillus cereus FDA 5; FDA5, pH 9, read-out: Minimum Inhibitory Conc. (MIC)): 3.13 µg/mL (≈ 8.81 µM) | MIC ([3]; IFO12108, pH 7, read-out: Minimum Inhibitory Conc. (MIC)): 12.5 µg/mL (≈ 35.2 µM) | MIC ([3]; IFO12108, pH 5, broth dilution, read-out: Minimum Inhibitory Conc. (MIC)): 25 µg/mL (≈ 70.3 µM) | MIC ([3]; IFO12108, pH 9, broth dilution, read-out: Minimum Inhibitory Conc. (MIC)): 1.56 µg/mL (≈ 4.39 µM) | MIC [4, 22]: 50 µg/mL (≈ 141 µM) | MIC [4, 23]: 12.5 µg/mL (≈ 35.2 µM) | MIC [4, 24]: 1.56 µg/mL (≈ 4.39 µM) | MIC (Escherichia coli LD-2; LD2, pH 5, read-out: Minimum Inhibitory Conc. (MIC)): 100 µg/mL (≈ 281 µM) | MIC (Escherichia coli LD-2; LD2, pH 7, read-out: Minimum Inhibitory Conc. (MIC)): 25 µg/mL (≈ 70.3 µM) | MIC (Escherichia coli LD-2; LD2, pH 9, read-out: Minimum Inhibitory Conc. (MIC)): 1.56 µg/mL (≈ 4.39 µM) | MIC ([5]; NIHJJC2, pH 5, read-out: Minimum Inhibitory Conc. (MIC)): > 100 µg/mL | MIC ([5]; NIHJJC2, pH 7, read-out: Minimum Inhibitory Conc. (MIC)): > 100 µg/mL | MIC ([5]; NIHJJC2, pH 9, read-out: Minimum Inhibitory Conc. (MIC)): 25 µg/mL (≈ 70.3 µM) | MIC ([6]; IFO3317, pH 5, read-out: Minimum Inhibitory Conc. (MIC)): > 100 µg/mL | MIC ([6]; IFO3317, pH 7, read-out: Minimum Inhibitory Conc. (MIC)): > 100 µg/mL | MIC ([6]; IFO3317, pH 9, read-out: Minimum Inhibitory Conc. (MIC)): 100 µg/mL (≈ 281 µM) | MIC ([7]; IFO12708, pH 7, read-out: Minimum Inhibitory Conc. (MIC)): 1.56 µg/mL (≈ 4.39 µM) | MIC ([7]; IFO12708, pH 9, read-out: Minimum Inhibitory Conc. (MIC)): 0.2 µg/mL (≈ 0.563 µM) | MIC ([8]; IFO3988, pH 5, read-out: Minimum Inhibitory Conc. (MIC)): > 100 µg/mL | MIC ([8]; IFO3988, pH 7, read-out: Minimum Inhibitory Conc. (MIC)): > 100 µg/mL | MIC ([8]; IFO3988, pH 9, read-out: Minimum Inhibitory Conc. (MIC)): 50 µg/mL (≈ 141 µM) | MIC ([9]; IFO3080, pH 5, read-out: Minimum Inhibitory Conc. (MIC)): > 100 µg/mL | MIC ([9]; IFO3080, pH 7, read-out: Minimum Inhibitory Conc. (MIC)): > 100 µg/mL | MIC ([9]; IFO3080, pH 9, read-out: Minimum Inhibitory Conc. (MIC)): 100 µg/mL (≈ 281 µM) | MIC ([10]; PAO8, pH 5, read-out: Minimum Inhibitory Conc. (MIC)): 100 µg/mL (≈ 281 µM) | MIC ([10]; PAO8, pH 7, read-out: Minimum Inhibitory Conc. (MIC)): > 100 µg/mL | MIC ([10]; PAO8, pH 9, read-out: Minimum Inhibitory Conc. (MIC)): 100 µg/mL (≈ 281 µM) | MIC ([11]; pH 5, read-out: Minimum Inhibitory Conc. (MIC)): > 100 µg/mL | MIC [11, 23]: > 100 µg/mL | MIC ([11]; pH 9, read-out: Minimum Inhibitory Conc. (MIC)): 25 µg/mL (≈ 70.3 µM) | MIC [12, 23]: 3.13 µg/mL (≈ 8.81 µM) | MIC [12, 24]: < 0.1 µg/mL | MIC ([13]; IFO3762, pH 5, read-out: Minimum Inhibitory Conc. (MIC)): > 100 µg/mL | MIC ([13]; IFO3762, pH 7, read-out: Minimum Inhibitory Conc. (MIC)): 1.56 µg/mL (≈ 4.39 µM) | MIC ([13]; IFO3762, pH 9, read-out: Minimum Inhibitory Conc. (MIC)): < 0.1 µg/mL | MIC ([14]; IFO3989, pH 7, read-out: Minimum Inhibitory Conc. (MIC)): 12.5 µg/mL (≈ 35.2 µM) | MIC ([14]; IFO3989, pH 9, read-out: Minimum Inhibitory Conc. (MIC)): 3.13 µg/mL (≈ 8.81 µM) | MIC ([14]; IFO3989, pH 5, broth dilution, read-out: Minimum Inhibitory Conc. (MIC)): > 100 µg/mL | MIC [15]: 12.5 µg/mL (≈ 35.2 µM) | MIC [16]: 3.13 µg/mL (≈ 8.81 µM) | MIC [17]: 6.25 µg/mL (≈ 17.6 µM) | MIC [18]: 50 µg/mL (≈ 141 µM) | MIC [19]: 3.13 µg/mL (≈ 8.81 µM) | LD50 ([20]; Oral): > 400 mg/kg | LD50 ([20]; ip, Intraperitoneal): ~100 mg/kg | MIC [21]: 100 µg/mL (≈ 281 µM)
